Reference: US20180055050A1 (priority 2016, published 2018)

Test system: Rice Blast
Parameters: species or system Magnaporthe oryzae
Settings: in vivo

COc1ccnc(C(=O)N[C@H]2COC(=O)[C@H](Cc3ccccc3)[C@@H](OC(=O)C(C)C)[C@H](C)OC2=O)c1OCOC(=O)C(C)C [Compound I]
Flag Leaf (% INFECT): B (key: A: 1-25; B: 26-50; C: 51-75; D: 76-100; E: Not tested)
Panicles (% INCID): B (key: A: 1-25; B: 26-50; C: 51-75; D: 76-100; E: Not tested)
Panicles (% INFECT): B (key: A: 1-25; B: 26-50; C: 51-75; D: 76-100; E: Not tested)
